For three compounds, acid secretion inhibition, Ki and melting point results are on record in patent US6344452B1, “1,5-benzodiazepine derivatives” (Zeria Pharmaceuticals Co., Ltd., priority 1998, dated 2002).

Data set [1] deals with pentagastrin-stimulated acid secretion. Briefly: Inhibition test on pentagastrin-stimulated acid secretion in rats. In kind it is in vivo, rat. As to conditions: SD rats, acid output 1st to 4th hour after administration. As for the experimental part: <Inhibition Test on Pentagastrin-stimulated Acid Secretion in Rats>
Male Sprague-Dawley (SD) strain rats were used. Under anesthesia with ethyl ether, operations were performed on each rat to ligate the gastric antrum and also to arrange an intraduodenal catheter and a gastric fistula tube. After completion of the operations, the rat was placed in a Ballmann cage, and pentagastrin was continuously injected at 15 μg/kg/hr through the caudal vein. Each test compound was formed into a suspension by using a 0.5% carboxymethylcellulose sodium solution (hereinafter called “the solvent”). Upon an elapsed timeof 1 hour from the initiation of the injection of pentagastrin, the solvent or the test compound was administered through the intraduodenal catheter. The acidity of sampled gastric juice was measured using an autotitrater, and a product of the acidity and the amount of the gastric juice was recorded as an acid output. […] [formula]

The next data set addresses T1, CCK-A receptor (Cavia porcellus, UniProt Q63931).
T1 construct: The homogenate was provided as a receptor sample; from tissue; host or cells: guinea pig pancreas membrane homogenate
T1 sequence (Q63931 1-430): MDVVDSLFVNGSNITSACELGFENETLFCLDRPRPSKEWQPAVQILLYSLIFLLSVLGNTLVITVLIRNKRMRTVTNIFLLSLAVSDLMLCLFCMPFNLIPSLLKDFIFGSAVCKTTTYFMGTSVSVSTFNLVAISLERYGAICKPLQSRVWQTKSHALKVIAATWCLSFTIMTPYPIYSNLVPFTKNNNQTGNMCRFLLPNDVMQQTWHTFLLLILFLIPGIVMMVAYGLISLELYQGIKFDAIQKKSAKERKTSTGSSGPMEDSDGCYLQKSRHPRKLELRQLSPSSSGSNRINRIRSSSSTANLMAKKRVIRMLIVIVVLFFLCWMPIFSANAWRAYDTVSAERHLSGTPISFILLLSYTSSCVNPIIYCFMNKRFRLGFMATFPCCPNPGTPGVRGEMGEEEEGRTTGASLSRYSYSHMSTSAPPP
Briefly: CCK-A receptor binding test ([3H]L-364,718, guinea pig pancreas). As to conditions: [3H]L-364,718 0.2 nM, guinea pig pancreas membranes, 25° C., 2 hours; read-out: binding inhibition constant (Ki value). How it is done:
<CCK-A Receptor Binding Test>
From a male Hartley strain guinea pig, the pancreas was removed. The pancreas was homogenized with 10 mM PIPES buffer (pH 6.5, hereinafter called “the solvent”) in an amount 40 times as much as the weight of the pancreas. The solvent contained EGTA (1 mM), magnesium chloride (30 mM), bacitracin (0. 02%) , soybean trypsin inhibitor (0.02%), and sucrose (0.3 M). After filtered through gauze, the homogenate was centrifuged under 50,000 g for 10 minutes. To the resulting pellet, the solvent was added again in an amount as much as the pellet, followed by centrifugation. To the thus-obtained pellet the solvent was added in an amount 40 times as much as the pellet, and the pellet was homogenized. […]
As a binding experiment, a solution (50 μL) of [^3H]L-364,718 (devazepide), said solution having a final concentration of 0.2 nM, and the receptor sample (protein content: 50 μg/tube) (900 μL) were added to the solvent, an L-364,718 solution of a final concentration of 1 μM or a test compound solution (50 μL), followed by a reaction at 25° C. for 2 hours. […] ACS-II scintillator was added to the filter and, after the filter was left over for 24 hours, the radioactivity concentration on the filter was measured by a liquid scintillation counter. […] From the specific binding of [^3H]L-364,718, the binding inhibition constant (Ki value) of the compound was calculated.

In a further data set the target is T2, CCK-B receptor (Cavia porcellus, UniProt H0VZC5).
T2 construct: the homogenate was provided as a receptor sample; from tissue; host or cells: guinea pig cerebral cortex membrane homogenate
T2 sequence (H0VZC5 1-426): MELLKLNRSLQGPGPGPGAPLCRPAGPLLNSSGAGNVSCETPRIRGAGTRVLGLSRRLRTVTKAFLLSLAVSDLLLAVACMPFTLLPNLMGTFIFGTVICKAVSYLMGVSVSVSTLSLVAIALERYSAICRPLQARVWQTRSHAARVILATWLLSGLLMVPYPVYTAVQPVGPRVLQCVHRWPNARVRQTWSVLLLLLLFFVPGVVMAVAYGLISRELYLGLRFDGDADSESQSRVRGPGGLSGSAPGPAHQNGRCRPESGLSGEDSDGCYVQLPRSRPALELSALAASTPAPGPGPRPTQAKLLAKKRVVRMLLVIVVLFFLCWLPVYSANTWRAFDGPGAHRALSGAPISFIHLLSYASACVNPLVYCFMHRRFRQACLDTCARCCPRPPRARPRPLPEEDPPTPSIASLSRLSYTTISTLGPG
Briefly: CCK-B receptor binding test ([3H]CCK-B, guinea pig cerebral cortex). As to conditions: [3H]CCK-B 1.0 nM, guinea pig cerebral cortex membranes, 25° C., 2 hours; read-out: binding inhibition constant (Ki value). How it is done: <CCK-B Receptor Binding Test>
From a male Hartley strain guinea pig, the cerebral cortex was removed. After the cerebral cortex was homogenized with 50 mM tris-HCl buffer (pH 7.4) in an amount 50 times as much as the weight of the cerebral cortex, the homogenate was centrifuged under 50,000 g for 10 minutes. With respect to the resulting pellet, addition of the same buffer in the same amount and centrifugation were repeated twice. […]
As a binding experiment, a [^3H]CCK-B solution of a final concentration of 1.0 nM (50 μL) and the receptor sample (protein content: 800 μg/tube) (900 μL) were added to the solvent, the CCK-B solution of a final concentration of 1.0 μM or a test compound solution (50 μL), followed by a reaction at 25° C. for 2 hours. […] ACS-II scintillator was added to the filter and, after the filter was left over for 24 hours, the radioactivity concentration on the filter was measured by a liquid scintillation counter. A binding in the presence of CCK-B (1 μM) was recorded as a non-specific binding, while a value obtained by subtracting the non-specific binding from a full binding, which had been obtained using the solvent instead of CCK-B, was recorded as a specific binding. From the specific binding of [^3H]CCK-B, the binding inhibition constant (Ki value) of the compound was calculated.

Data set [2] has as its system pentagastrin-stimulated acid secretion. In words: Inhibition test on pentagastrin-stimulated acid secretion in beagles with Heidenhain pouch. In kind it is in vivo, beagle. As to conditions: 1 mg/kg oral (gelatin capsules), acid output 1st to 4th hour after administration. How it is done: <Inhibition Test on Pentagastrin-stimulated Acid Secretion in Beagles with Heidenhain Pouch>
Male beagles with Heidenhain pouch formed beforehand were used. Pentagastrin was continuously and intravenously injected at 4 μg/kg/hr. Upon an elapsed time of 3 hours after the initiation of the continuous injection of pentagastrin, each test compound was filled in gelatin capsules and orally administered. The acidity of sampled gastric juice was measured using an autotitrater, and a product of the acidity and the amount of the gastric juice was recorded as an acid output. Supposing -that an acid output during 1 hour preceding the administration was 100%, acid output over 3 hours ranging from the 1st hour to the 4th hour after the administration of the test compound were converted into percentages (acid output percentages). Based on such acid output percentages, the acid output inhibition rate of each beagle was determined using the below-described formula. An average of such acid output inhibition rates was recorded as the acid inhibition rate of the compound. […] [formula]

Turning to `CC(C)(C)C(=O)CN1C(=O)[C@H](NC(=O)Nc2cccc(C(C)(C)C(=O)O)c2)CN(C2CCCCC2)c2ccccc21` [Example 5, sodium (R)-2-[3-[3-(1-tert-butylcarbonylmethyl-2-oxo-5-cyclohexyl-1,3,4,5-tetrahydro-2H-1,5-benzodiazepin-3-yl)ureido]phenyl]-2-methylpropionate], the acid secretion inhibition amounted to 48.4% in data set [1] (0.1 mg/kg intraduodenal) and 79.3% in data set [1] (0.3 mg/kg intraduodenal).
For orientation: Ki means a dissociation constant, usually derived from enzyme kinetics or from competition with a known ligand. `CC(C)(C)C(=O)CN1C(=O)[C@H](NC(=O)Nc2cccc(C(C)(C)C(=O)O)c2)CN(C2CCCCC2)c2ccccc21` [Example 2, (R)-(−)-2-[3-[3-(1-tert-butylcarbonylmethyl-2-oxo-5-cyclohexyl-1,3,4,5-tetrahydro-2H-1,5-benzodiazepin-3-yl)ureido]phenyl]-2-methylpropionic acid]: the inhibitory constant (Ki) on CCK-A receptor is 438 nM; at CCK-B receptor, 0.74 nM. For the same compound, the figures for the acid secretion inhibition in data set [1] (0.3 mg/kg intraduodenal) and in data set [2] were 72.7% and 77.9%, respectively.
What is called melting point is the temperature of the solid-liquid transition. For the compound `CC(C)(C)C(=O)CN1C(=O)C(NC(=O)Nc2cccc(C(C)(C)C(=O)O)c2)CN(C2CCCCC2)c2ccccc21` (racemic) [Example 1, (±)-2-[3-[3-(1-tert-butylcarbonylmethyl-2-oxo-5-cyclohexyl-1,3,4,5-tetrahydro-2H-1,5-benzodiazepin-3-yl)ureido]phenyl]-2-methylpropionic acid], the melting point was 215 to 216 °C (dec.).
